Measured values taken from patent publication US20220073521A1, “PYRIMIDINE AND FIVE-MEMBERED NITROGEN HETEROCYCLE DERIVATIVE, PREPARATION METHOD THEREFOR, AND MEDICAL USES THEREOF” (Tuojie Biotech (Shanghai) Co., Ltd., priority 2018, published 2022).
Like-named read-outs stand apart in the source and are kept apart here.

Legend:
[1] = molecular target: T1, SHP2 wild-type phosphatase (recombinantly expressed full-length SHP2, aa 1-593) (Homo sapiens, UniProt Q06124); assay: In vitro activity on SHP2 wild-type phosphatase (DiFMUP fluorescence); conditions: wild-type full-length SHP2, activated polypeptide IRS1 0.5 nM, DiFMUP 30 μM;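 also: enzyme preincubated at room temperature, then DiFMUP reaction run at room temperature and halted with SDS, potency derived from a logistic curve fit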
T1 sequence (Q06124 1-593): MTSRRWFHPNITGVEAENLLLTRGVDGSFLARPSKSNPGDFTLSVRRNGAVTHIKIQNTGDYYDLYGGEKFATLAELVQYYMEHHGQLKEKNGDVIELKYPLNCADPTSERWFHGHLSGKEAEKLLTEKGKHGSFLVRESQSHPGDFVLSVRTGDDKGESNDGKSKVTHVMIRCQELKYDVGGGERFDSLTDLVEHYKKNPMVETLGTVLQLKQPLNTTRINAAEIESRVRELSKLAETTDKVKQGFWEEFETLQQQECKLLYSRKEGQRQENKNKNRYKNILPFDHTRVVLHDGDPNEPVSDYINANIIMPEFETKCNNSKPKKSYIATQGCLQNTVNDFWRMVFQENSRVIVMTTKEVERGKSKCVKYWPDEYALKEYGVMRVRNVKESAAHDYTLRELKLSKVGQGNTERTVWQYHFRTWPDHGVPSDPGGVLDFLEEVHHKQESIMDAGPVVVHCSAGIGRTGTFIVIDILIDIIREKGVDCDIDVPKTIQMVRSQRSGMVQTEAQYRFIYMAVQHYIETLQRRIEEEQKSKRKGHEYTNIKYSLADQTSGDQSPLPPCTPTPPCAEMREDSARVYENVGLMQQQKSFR
Method: 0.2 nM recombinantly expressed full-length SHP2 (aa 1-593), 0.5 nM activated polypeptide IRS1 with double phosphorylation sites (sequence: H2N-LN(pY)IDLDLY(dPEG8)LST(pY)ASINFQK-amide) and a series of concentrations of the test compound (final concentrations were 1 μM, 0.3 μM, 0.1 μM, 0.03 μM, 0.01 μM, 0.003 μM, 0.001 μM, 0.0003 μM, 0.0001 μM, 0.00003 μM) were added to the phosphatase reaction solution (60 mM HEPES, pH 7.5 0.005% Brij-35, 75 mM NaCl, 75 mM KCl, 1 mM EDTA, 5 mM DTT). The reaction solution was shaked (350 rpm) at room temperature for 30 minutes. The reaction substrate DiFMUP with a final concentration of 30 μM was added, and the reaction solution was reacted at room temperature for 30 minutes. The phosphatase reaction was stopped by adding 5 μL of stop solution (60 mM HEPES, pH 7.5, 0.2% SDS). Ex358 nm/Em455 fluorescence value was read on the fluorescence plate reader MD SpectraMax.
The IC50 value of the compound was calculated using the four-parameter logit method. In the following formula, x represents the logarithmic form of the compound concentration, and F(x) represents the effect value (the inhibition rate of cell proliferation under the given concentration condition): F(x)=((A−D)/(1+((x/C)^B)))+D. A, B, C and D are four parameters. Different concentrations correspond to different inhibition rates, based on which an inverse curve was plotted, and the IC50 of the inhibitor was calculated from the curve. The IC50 of the compound was calculated with Primer premier 6.0.

p-ERK in KYSE-520 cells = assay: Determination of p-ERK in KYSE-520 cells (HTRF); type: cell-based
Method: KYSE-520 cells (Nanjing Cobioer Biosciences CO., Ltd.) in the logarithmic growth phase were inoculated (30,000 cells/well) in 1640 medium containing 10% of FBS, and adhered in a 96-well plate overnight (5% CO2, 37° C.). […] The cell culture was stopped with cell lysate. The level of phosphorylated ERK in KYSE-520 cells was determined by a method based on homogeneous time-resolved fluorescence HTRF (Cisbio, 64ERKPEG). The fluorescence values (Ex337 nm/Em625/665 nm) were read on the compatible HTRF reader (MD SpectraMax).

KYSE-520 cells = assay: KYSE-520 cell proliferation experiment (CellTiter-Glo, 7 days); type: cell-based
Method: The treated cell plate was incubated at 37° C., 5% CO2 for 7 days. CellTiter-Glo (Promega, G7573) was used to determine the number of viable cells in each well of the treated plate. 100 μL of the detection reagent was added to each well, and the plate was incubated at room temperature for 10 minutes. Then, the […] in each well was measured with Envision plate reader (PerkinElmer). […] The IC50 value was further calculated as the compound concentration required for 50% proliferation inhibition in the best-fit curve with […].

| Structure (SMILES) | IC50 [1] | IC50 (p-ERK in KYSE-520 cells; Homo sapiens, KYSE-520, 2 h) | IC50 (p-ERK in KYSE-520 cells; 2 hours) | IC50 (KYSE-520 cells; Homo sapiens) | IC50 (KYSE-520 cells) |
| --- | --- | --- | --- | --- | --- |
| Cc1nc(N2CCC3(CC2)CO[C@@H](C)[C@H]3N)n2ccnc2c1-c1cccc(Cl)c1Cl (single isomer, unassigned) [The atropisomer with a RT of 2.716 minutes in Examples 3 and 4] | 61.7 nM |  |  |  |  |
| C[C@@H]1OCC2(CCN(c3nc(C(F)(F)F)c(Sc4cccnc4C(F)(F)F)c4nccn34)CC2)[C@@H]1N [Example 13, (3S,4S)-3-Methyl-8-(7-(trifluoromethyl)-8-((2-(trifluoromethyl)pyridin-3-yl)thio)imidazo[1,2-c]pyrimidin-5-yl)-2-oxa-8-azaspiro[4.5]decan-4-amine] | 818 nM |  |  |  |  |
| CC1(N)CCN(c2ncc(Sc3ccnc(F)c3Cl)c3nccn23)CC1 [Example 14, 1-(8-((3-Chloro-2-fluoropyridin-4-yl)thio)imidazo[1,2-c]pyrimidin-5-yl)-4-methylpiperidin-4-amine] | 232 nM |  |  |  |  |
| N[C@@H]1CCCC12CCN(c1ncc(Sc3ccnc(F)c3Cl)c3nccn13)CC2 [Example 15, (R)-8-(8-((3-Chloro-2-fluoropyridin-4-yl)thio)imidazo[1,2-c]pyrimidin-5-yl)-8-azaspiro[4.5]decan-1-amine] | 5.6 nM | 197 nM |  | 312 nM |  |
| N[C@@H]1CCCC12CCN(c1ncc(Sc3cccnc3C(F)(F)F)c3nccn13)CC2 [Example 16, (R)-8-(8-((2-(Trifluoromethyl)pyridin-3-yl)thio)imidazo[1,2-c]pyrimidin-5-yl)-8-azaspiro[4.5]decan-1-amine] | 6.8 nM | 166 nM |  | 548 nM |  |
| C[C@@H]1OCC2(CCN(c3ncc(Sc4ccncc4C(F)(F)F)c4nccn34)CC2)[C@@H]1N [Example 18, (3S,4S)-3-Methyl-8-(8-((3-(trifluoromethyl)pyridin-4-yl)thio)imidazo[1,2-c]pyrimidin-5-yl)-2-oxa-8-azaspiro[4.5]decan-4-amine] | 8.6 nM |  |  |  |  |
| CC1(N)CCN(c2ncc(Sc3ccnc(F)c3Cl)c3nncn23)CC1 [Example 19, 1-(8-((3-Chloro-2-fluoropyridin-4-yl)thio)-[1,2,4]triazolo[4,3-c]pyrimidin-5-yl)-4-methylpiperidin-4-amine] | 555 nM |  |  |  |  |
| Nc1nc(N2CCC3(CCC[C@H]3N)CC2)n2ccnc2c1Sc1ccnc(F)c1Cl [Example 22, (R)-8-(7-Amino-8-((3-chloro-2-fluoropyridin-4-yl)thio)imidazo[1,2-c]pyrimidin-5-yl)-8-azaspiro[4.5]decan-1-amine] | 2.1 nM | 24.5 nM |  | 102 nM |  |
| Nc1nc(N2CCC3(CCC[C@H]3N)CC2)n2ccnc2c1Sc1cccnc1C(F)(F)F [Example 23, (R)-8-(7-Amino-8-((2-(trifluoromethyl)pyridin-3-yl)thio)imidazo[1,2-c]pyrimidin-5-yl)-8-azaspiro[4.5]decan-1-amine] | 2.3 nM | 23.2 nM |  | 51.6 nM |  |
| C[C@@H]1OCC2(CCN(c3nc(N)c(Sc4ccnc(F)c4Cl)c4nccn34)CC2)[C@@H]1N [Example 26, (3S,4S)-8-(7-Amino-8-((3-chloro-2-fluoropyridin-4-yl)thio)imidazo[1,2-c]pyrimidin-5-yl)-3-methyl-2-oxa-8-azaspiro[4.5]decan-4-amine] | 2.7 nM | 11.6 nM |  | 62 nM |  |
| Cc1nc(N2CCC3(CC2)CO[C@@H](C)[C@H]3N)c(CO)nc1-c1cccc(Cl)c1Cl [RMC4550, reference compound] |  |  | 34.6 nM |  | 201 nM |

The next lines start with results.

| IC50 [1] | IC50 (p-ERK in KYSE-520 cells; Homo sapiens, KYSE-520, 2 h) | IC50 (p-ERK in KYSE-520 cells; 2 hours) | Structure (SMILES) | IC50 (KYSE-520 cells; Homo sapiens) | IC50 (KYSE-520 cells) |
| --- | --- | --- | --- | --- | --- |
| 2.9 nM |  |  | Cc1nc(N2CCC3(CCC[C@H]3N)CC2)n2ccnc2c1-c1ccnc(Cl)c1Cl [Example 5, (R)-8-(8-(2,3-Dichloropyridin-4-yl)-7-methylimidazo[1,2-c]pyrimidin-5-yl)-8-azaspiro[4.5]decan-1-amine] |  |  |
| 26.9 nM |  |  | COc1nccc(-c2c(C)nc(N3CCC4(CCC[C@H]4N)CC3)n3ccnc23)c1Cl [Example 6, (R)-8-(8-(3-Chloro-2-methoxypyridin-4-yl)-7-methylimidazo[1,2-c]pyrimidin-5-yl)-8-azaspiro[4.5]decan-1-amine] |  |  |
| 42.2 nM |  |  | Cc1nc(N2CCC3(CCC[C@H]3N)CC2)n2ccnc2c1-c1ccc(OC(F)F)cc1Cl [Example 7, (R)-8-(8-(2-Chloro-4-(difluoromethoxy)phenyl)-7-methylimidazo[1,2-c]pyrimidin-5-yl)-8-azaspiro[4.5]decan-1-amine] |  |  |
| 5 nM | 370 nM |  | Cc1nc(N2CCC3(CC2)Cc2ccccc2[C@H]3N)n2ccnc2c1-c1cccc(Cl)c1Cl [Example 8, (S)-1′-(8-(2,3-Dichlorophenyl)-7-methylimidazo[1,2-c]pyrimidin-5-yl)-1,3-dihydrospiro[indene-2,4′-piperidin]-1-amine] | 151 nM |  |
| 111 nM |  |  | Cc1nc(N2CCC3(CC2)CO[C@@H](C)[C@H]3N)n2ccnc2c1-c1c(F)cccc1Cl [Example 10, (3S,4S)-8-(8-(2-Chloro-6-fluorophenyl)-7-methylimidazo[1,2-c]pyrimidin-5-yl)-3-methyl-2-oxa-8-azaspiro[4.5]decan-4-amine] |  |  |
| 41.1 nM |  |  | Cc1nc(N2CCC3(CC2)CO[C@@H](C)[C@H]3N)n2ccnc2c1-c1c(F)ccc(Cl)c1Cl [Example 11, (3S,4S)-8-(8-(2,3-Dichloro-6-fluorophenyl)-7-methylimidazo[1,2-c]pyrimidin-5-yl)-3-methyl-2-oxa-8-azaspiro[4.5]decan-4-amine] |  |  |
|  | 59.2 nM |  | Cc1nc(N2CCC3(CC2)CO[C@@H](C)[C@H]3N)n2ccnc2c1-c1cccc(Cl)c1Br [Example 12, (3S,4S)-8-(8-(2-Bromo-3-chlorophenyl)-7-methylimidazo[1,2-c]pyrimidin-5-yl)-3-methyl-2-oxa-8-azaspiro[4.5]decan-4-amine] | 346 nM |  |
| 2 nM | 85.9 nM |  | Nc1nc(N2CCC3(CCC[C@H]3N)CC2)n2ccnc2c1-c1cccc(Cl)c1Cl [Example 20, (R)-8-(7-Amino-8-(2,3-dichlorophenyl)imidazo[1,2-c]pyrimidin-5-yl)-8-azaspiro[4.5]decan-1-amine] | 178 nM |  |
| 3.8 nM | 26.6 nM |  | C[C@@H]1OCC2(CCN(c3nc(N)c(-c4cccc(Cl)c4Cl)c4nccn34)CC2)[C@@H]1N [Example 21, (3S,4S)-8-(7-Amino-8-(2,3-dichlorophenyl)imidazo[1,2-c]pyrimidin-5-yl)-3-methyl-2-oxa-8-azaspiro[4.5]decan-4-amine] | 111 nM |  |
| 5.2 nM | 29.1 nM |  | Cc1nccc(Sc2c(N)nc(N3CCC4(CC3)CO[C@@H](C)[C@H]4N)n3ccnc23)c1Cl [Example 25, (3S,4S)-8-(7-Amino-8-((3-chloro-2-methylpyridin-4-yl)thio)imidazo[1,2-c]pyrimidin-5-yl)-3-methyl-2-oxa-8-azaspiro[4.5]decan-4-amine] |  |  |
| 1.3 nM |  |  | Nc1nccc(Sc2c(N)nc(N3CCC4(CC3)Cc3ccccc3[C@H]4N)n3ccnc23)c1Cl [Example 29, (S)-1′-(7-Amino-8-((2-amino-3-chloropyridin-4-yl)thio)imidazo[1,2-c]pyrimidin-5-yl)-1,3-dihydrospiro[indene-2,4′-piperidin]-1-amine] | 14 nM |  |
| 1.2 nM |  |  | Cc1nc(N2CCC3(CC2)Cc2ncccc2[C@H]3N)n2ccnc2c1-c1cccc(Cl)c1Cl [Example 33, (S)-1′-(8-(2,3-Dichlorophenyl)-7-methylimidazo[1,2-c]pyrimidin-5-yl)-5,7-dihydrospiro[cyclopenta[b]pyridine-6,4′-piperidin]-5-amine] |  |  |
| 1.5 nM |  |  | COc1nccc(Sc2cnc(N3CCC4(CC3)Cc3ncccc3[C@H]4N)n3ccnc23)c1Cl [Example 35, (S)-1′-(8-((3-Chloro-2-methoxypyridin-4-yl)thio)imidazo[1,2-c]pyrimidin-5-yl)-5,7-dihydrospiro[cyclopenta[b]pyridine-6,4′-piperidin]-5-amine] |  |  |
| 10.9 nM |  |  | CNc1ncccc1Sc1cnc(N2CCC3(CC2)Cc2ncccc2[C@H]3N)n2ccnc12 [Example 38, (S)-1′-(8-((2-(Methylamino)pyridin-3-yl)thio)imidazo[1,2-c]pyrimidin-5-yl)-5,7-dihydrospiro[cyclopenta[b]pyridine-6,4′-piperidin]-5-amine] |  |  |
